According to patent publication US4315858A, “Antibacterial amide compounds” (Warner-Lambert Company, priority 1980, dated 1982):
Values after ≈ are worked out from the molar mass of the structure shown.

Assays:
Assay type in all cases: cell-based
[1] = test system: Pseudomonas aeruginosa #28; assay: Minimal inhibitory concentration against Pseudomonas aeruginosa #28
Entero. cloacae = assay: Minimal inhibitory concentration against Entero. cloacae; conditions: Enterobacter cloacae
Serr. marces. = assay: Minimal inhibitory concentration against Serr. marces.
Klebs. pneu. = assay: Minimal inhibitory concentration against Klebs. pneu.
Staph. aureus S18713 = assay: Minimal inhibitory concentration against Staph. aureus S18713; conditions: Staphylococcus aureus

Structure (SMILES) | MIC [1] [µg/mL] | MIC (Entero. cloacae) [µg/mL] | MIC (Serr. marces.) [µg/mL] | MIC (Klebs. pneu.) [µg/mL] | MIC (Staph. aureus S18713) [µg/mL]
CC1(C)S[C@@H]2[C@H](NC(=O)[C@H](NC(=O)c3ccc(-c4ccc(NC(=O)Cc5nn[nH]n5)cc4)[nH]c3=O)c3ccc(O)cc3)C(=O)N2[C@H]1C(=O)O [Example 6] | 3.1 (≈ 4.51 µM) | 1.6 (≈ 2.33 µM) | 1.6 (≈ 2.33 µM) | 12.5 (≈ 18.2 µM) | > 50
CC(=O)C(=O)Nc1ccc(-c2ccc(C(=O)N[C@@H](C(=O)N[C@@H]3C(=O)N4[C@@H]3SC(C)(C)[C@@H]4C(=O)O)c3ccc(O)cc3)c(=O)[nH]2)cc1 [Example 7, N-[6-[4-(1,2-Dioxopropylamino)phenyl]-1,2-dihydro-2-oxonicotinoyl]amoxicillin] | 1.6 (≈ 2.47 µM) | 3.1 (≈ 4.79 µM) | 3.1 (≈ 4.79 µM) | 12.5 (≈ 19.3 µM) | 25 (≈ 38.6 µM)
CC1(C)S[C@@H]2[C@H](NC(=O)[C@H](NC(=O)c3ccc(-c4ccc(NC(=O)CSCC(F)(F)F)cc4)[nH]c3=O)c3ccc(O)cc3)C(=O)N2[C@H]1C(=O)O [Example 8] | 0.8 (≈ 1.09 µM) | 6.3 (≈ 8.59 µM) | 0.4 (≈ 0.545 µM) | 3.1 (≈ 4.22 µM) | > 50
CC(=O)Nc1ccc(-c2ccc(C(=O)N[C@@H](C(=O)N[C@@H]3C(=O)N4[C@@H]3SC(C)(C)[C@@H]4C(=O)O)c3ccccc3)c(=O)[nH]2)cc1 [Example 1, N-[6-[4-(Acetylamino)phenyl]-1,2-dihydro-2-oxonicotinoyl]-ampicillin] | 3.1 (≈ 5.14 µM) | 12.5 (≈ 20.7 µM) | 25 (≈ 41.4 µM) | 6.3 (≈ 10.4 µM) | 100 (≈ 166 µM)
CC(=O)Nc1ccc(-c2ccc(C(=O)N[C@@H](C(=O)N[C@@H]3C(=O)N4[C@@H]3SC(C)(C)[C@@H]4C(=O)O)c3ccc(O)cc3)c(=O)[nH]2)cc1 [Example 2, N-[6-[4-(acetylamino)phenyl]-1,2-dihydro-2-oxonicotinoyl]amoxicillin] | 3.1 (≈ 5 µM) | 6.3 (≈ 10.2 µM) | 25 (≈ 40.3 µM) | 12.5 (≈ 20.2 µM) | 200 (≈ 323 µM)
CC1(C)S[C@@H]2[C@H](NC(=O)[C@H](NC(=O)c3ccc(-c4ccc(NC(=O)CC#N)cc4)[nH]c3=O)c3ccc(O)cc3)C(=O)N2[C@H]1C(=O)O [Example 5] | 1.6 (≈ 2.48 µM) | 1.6 (≈ 2.48 µM) | 200 (≈ 310 µM) | 3.1 (≈ 4.81 µM) | 100 (≈ 155 µM)
CC1(C)S[C@@H]2[C@H](NC(=O)[C@H](NC(=O)c3ccc(-c4ccc(NC(=O)C(F)(F)F)cc4)[nH]c3=O)c3ccccc3)C(=O)N2[C@H]1C(=O)O [Example 3, N-[6-[4(Trifluoroacetylamino)phenyl]-1,2-dihydro-2-oxonicotinoyl]ampicillin] | 6.3 (≈ 9.58 µM) | 3.1 (≈ 4.71 µM) | 25 (≈ 38 µM) | 6.3 (≈ 9.58 µM) | 200 (≈ 304 µM)
CC1(C)S[C@@H]2[C@H](NC(=O)[C@H](NC(=O)c3ccc(-c4ccc(NC(=O)C(F)(F)F)cc4)[nH]c3=O)c3ccc(O)cc3)C(=O)N2[C@H]1C(=O)O [Example 4, N-[6-[4-(Trifluoroacetylamino)phenyl]-1,2-dihydro-2-oxonicotinoyl]amoxicillin] | 1.6 (≈ 2.38 µM) | 3.1 (≈ 4.6 µM) | 100 (≈ 148 µM) | 3.1 (≈ 4.6 µM) | 100 (≈ 148 µM)

Now from value to compound:

MIC [1] [µg/mL] | MIC (Entero. cloacae) [µg/mL] | MIC (Serr. marces.) [µg/mL] | MIC (Klebs. pneu.) [µg/mL] | MIC (Staph. aureus S18713) [µg/mL] | Structure (SMILES)
1.6 (≈ 2.3 µM) | 1.6 (≈ 2.3 µM) | 50 (≈ 71.9 µM) | 3.1 (≈ 4.46 µM) | 50 (≈ 71.9 µM) | CC1(C)S[C@@H]2[C@H](NC(=O)[C@H](NC(=O)c3ccc(-c4ccc(NC(=O)Cc5ccccc5)cc4)[nH]c3=O)c3ccc(O)cc3)C(=O)N2[C@H]1C(=O)O [Example 13, N-[6-[4-(Phenylacetylamino)phenyl]-1,2-dihydro-2-oxonicotinoyl]amoxicillin]
1.6 (≈ 2.3 µM) | 6.3 (≈ 9.05 µM) | 12.5 (≈ 18 µM) | 0.8 (≈ 1.15 µM) | 50 (≈ 71.9 µM) | CC1(C)S[C@@H]2[C@H](NC(=O)[C@H](NC(=O)c3ccc(-c4ccc(NC(=O)OCc5ccccc5)cc4)[nH]c3=O)c3ccccc3)C(=O)N2[C@H]1C(=O)O [Example 11, N-[6-[4-(Benzyloxycarbonylamino)phenyl]-1,2-dihydro-2-oxonicotinoyl]ampicillin]
1.6 (≈ 2.32 µM) | 12.5 (≈ 18.1 µM) | 1.6 (≈ 2.32 µM) | 6.3 (≈ 9.12 µM) | > 50 | CC1(C)S[C@@H]2[C@H](NC(=O)[C@H](NC(=O)c3ccc(-c4ccc(NC(=O)CSCC#N)cc4)[nH]c3=O)c3ccc(O)cc3)C(=O)N2[C@H]1C(=O)O [Example 9]
6.3 (≈ 9.3 µM) | 1.6 (≈ 2.36 µM) | 200 (≈ 295 µM) | 6.3 (≈ 9.3 µM) | 50 (≈ 73.8 µM) | CCOC(=O)C(=O)Nc1ccc(-c2ccc(C(=O)N[C@@H](C(=O)N[C@@H]3C(=O)N4[C@@H]3SC(C)(C)[C@@H]4C(=O)O)c3ccc(O)cc3)c(=O)[nH]2)cc1 [Example 10, N-[6-[4-[(2-Ethoxy-1,2-dioxoethyl)amino]phenyl]-1,2-dihydro-2-oxonicotinoyl]amoxicillin]
1.6 (≈ 2.52 µM) | 1.6 (≈ 2.52 µM) | 25 (≈ 39.3 µM) | 3.1 (≈ 4.88 µM) | 100 (≈ 157 µM) | COC(=O)Nc1ccc(-c2ccc(C(=O)N[C@@H](C(=O)N[C@@H]3C(=O)N4[C@@H]3SC(C)(C)[C@@H]4C(=O)O)c3ccc(O)cc3)c(=O)[nH]2)cc1 [Example 12, N-[6-[4-(Methoxycarbonylamino)phenyl]-1,2-dihydro-2-oxonicotinoyl]amoxicillin]
6.3 (≈ 10.4 µM) | 6.3 (≈ 10.4 µM) | 12.5 (≈ 20.7 µM) | 3.1 (≈ 5.14 µM) | > 200 | CC(=O)Nc1cccc(-c2ccc(C(=O)N[C@@H](C(=O)N[C@@H]3C(=O)N4[C@@H]3SC(C)(C)[C@@H]4C(=O)O)c3ccccc3)c(=O)[nH]2)c1 [Example 15, N-[6-[3-(Acetylamino)phenyl]-1,2-dihydro-2-oxonicotinoyl]ampicillin]
0.8 (≈ 1.23 µM) | 3.1 (≈ 4.78 µM) | 0.8 (≈ 1.23 µM) | 6.3 (≈ 9.71 µM) | 50 (≈ 77.1 µM) | CCNC(=O)Nc1ccc(-c2ccc(C(=O)N[C@@H](C(=O)N[C@@H]3C(=O)N4[C@@H]3SC(C)(C)[C@@H]4C(=O)O)c3ccc(O)cc3)c(=O)[nH]2)cc1 [Example 14, N-[6-[4-(N-Ethylcarbamoylamino)phenyl]-1,2-dihydro-2-oxonicotinoyl]amoxicillin]
